Experimental data reported in article PMC3585840 (Drugs in R&D, 2012).
Like-named read-outs stand apart in the source and are kept apart here.

Key:
DβH = details: cited from earlier work
Safety and tolerability = format: in vivo, human
[1] = Plasma pharmacokinetics, rising multiple-dose study; format: in vivo, human
[2] = cited from earlier work
[3] = tested on: spontaneously hypertensive rats (SHR); details: cited from earlier work
[4] = healthy subjects; cited from earlier work
[5] = format: in vivo, human
[6] = tested on: urinary levels of norepinephrine, dopamine, epinephrine and homovanillic acid; test: Urinary catecholamine excretion; format: in vivo, human; details: for decrease of urinary excretion of norepinephrine at day 10 in relation to day 1: 24-hour urine
[7] = Supine blood pressure and ECG-measured heart rate; format: in vivo, human; details: for decrease of supine DBP Emax in relation to day 1 / decrease of supine DBP AUCEC in relation to day 1: repeated dosing
[8] = etamicastat 25–600 mg once daily for 10 days

SMILES: NCc1c[nH]c(=S)n1[C@H]1CCc2c(F)cc(F)cc2C1 [Nepicastat]
- potency as DβH inhibitor versus first- and second-generation inhibitors (DβH): much greater potency

SMILES: Cl.NCCc1c[nH]c(=S)n1[C@H]1COc2c(F)cc(F)cc2C1 [Etamicastat, (R)-5-(2-aminoethyl)-1-(6,8-difluorochroman-3-yl)-1,3-dihydroimidazole-2-thione hydrochloride]
- subjects reporting diarrhea as an AE (Safety and tolerability; 600 mg etamicastat group): 83%
- clinical laboratory evaluations (Safety and tolerability; [8]): no clinically significant abnormality
- intensity of adverse events (Safety and tolerability; [8]): mild to moderate
- serious adverse events (Safety and tolerability; [8]): no serious AEs
- tolerability (Safety and tolerability; etamicastat up to 600 mg once daily for 10 days): generally well tolerated
- days of dosing until steady-state plasma concentrations were attained ([1]; all dose groups 25–600 mg once daily): up to 9 days
- linearity of pharmacokinetics ([1]; dose range 25–600 mg): linear pharmacokinetics
- day at which steady state was reached (trough plasma concentrations) ([1]; etamicastat 200 mg once daily): 9 days
- day at which steady state was reached (trough plasma concentrations) ([1]; etamicastat 400 mg once daily): 8 days
- effect of NAT1 phenotype on etamicastat pharmacokinetics ([1]; etamicastat 25–600 mg): No relevant effect
- half-life ([1]; male, human, plasma, oral, mean apparent t1/2 following the first dose, range over etamicastat 25–600 mg, plasma): 9 to 15 h
- mean observed accumulation ratio (RO) ([1]; range over etamicastat 25–600 mg once daily for 10 days): 1.3–1.9
- time after dosing at which maximum concentration (Cmax) was reached ([1]; range over etamicastat 25–600 mg once daily, plasma): 1 to 3 h
- day at which steady state was reached (trough plasma concentrations) ([1]; remaining dose groups): < 6 days
- time of maximum plasma concentrations (Cmax) after dosing ([2]; single dose 2–1200 mg): 1 to 3 h
- tolerability ([2]; single doses 2–1200 mg): well tolerated at all the investigated dose levels
- longer elimination half-life (t1/2) ([2]; single etamicastat doses ≥100 mg): 16 to 20 h
- blood pressure and norepinephrine urinary excretion ([3]; chronically administered in drinking water, SHR rats): significantly reduced
- urinary excretion of dopamine ([3]; chronically administered in drinking water, only in SHR rats): increased significantly
- systolic and diastolic blood pressure (but not the heart rate) ([3]; oral administration, SHR rats, dose-dependent, not observed in normotensive control rats): decreased
- effect of food on absorption [4]: delayed by the presence of food
- effect of food on extent of systemic exposure (AUC) [4]: no significant effect
- urinary excretion rate ([5]; first dose, etamicastat 25 mg): 0.3 ± 0.1 mg/h
- urinary excretion rate ([5]; first dose, etamicastat 600 mg): 8.5 ± 3.2 mg/h
- urinary excretion rate ([5]; last dose, etamicastat 25 mg): 0.4 ± 0.2 mg/h
- urinary excretion rate ([5]; last dose, etamicastat 600 mg): 10.6 ± 2.8 mg/h
- CL renal ([5]; male, human, urine and plasma, po): 198 to 267 mL/min
- change in urinary excretion of homovanillic acid, epinephrine and dopamine ([6]; day 1 to day 10, all dose groups): No relevant changes
- decrease in norepinephrine urinary excretion ([6]; doses of etamicastat 100 mg and above, day 10 vs day 1): 32–36%
- decrease of urinary excretion of norepinephrine at day 10 in relation to day 1 ([6]; etamicastat 25 mg once daily): 24%
- decrease of urinary excretion of norepinephrine at day 10 in relation to day 1 ([6]; etamicastat 50 mg once daily): 18%
- decrease of urinary excretion of norepinephrine at day 10 in relation to day 1 ([6]; etamicastat 100 mg once daily): 36%
- decrease of urinary excretion of norepinephrine at day 10 in relation to day 1 ([6]; etamicastat 200 mg once daily): 34%
- decrease of urinary excretion of norepinephrine at day 10 in relation to day 1 ([6]; etamicastat 400 mg once daily): 32%
- decrease of urinary excretion of norepinephrine at day 10 in relation to day 1 ([6]; etamicastat 600 mg once daily): 34%
- decrease of supine DBP Emax in relation to day 1 ([7]; etamicastat 100 mg, p < 0.01): 5.6 mmHg
- decrease of supine DBP AUCEC in relation to day 1 ([7]; etamicastat 100 mg, p < 0.05): 223 mmHg · h
- decrease of supine DBP AUCEC in relation to day 1 ([7]; etamicastat 200 mg, p < 0.05): 193 mmHg · h
- decrease of supine DBP Emax in relation to day 1 ([7]; etamicastat 200 mg, p < 0.05): 5.9 mmHg
- change in SBP and HR ([7]; following repeated dosing, any dose level): did not significantly change
- changes in SBP, DBP or HR ([7]; following the first dose, etamicastat 25–600 mg): no significant changes
